{"source": "paper PMC8280128", "about": "“Antioxidant and food additive BHA prevents TNF cytotoxicity by acting as a direct RIPK1 inhibitor” (Cell Death & Disease, 2021)", "biological_target": "T1, RIPK1 (Homo sapiens, UniProt Q13546)", "T1 construct": "AA 1–479, GST fusion", "T1 sequence (Q13546 1-479)": "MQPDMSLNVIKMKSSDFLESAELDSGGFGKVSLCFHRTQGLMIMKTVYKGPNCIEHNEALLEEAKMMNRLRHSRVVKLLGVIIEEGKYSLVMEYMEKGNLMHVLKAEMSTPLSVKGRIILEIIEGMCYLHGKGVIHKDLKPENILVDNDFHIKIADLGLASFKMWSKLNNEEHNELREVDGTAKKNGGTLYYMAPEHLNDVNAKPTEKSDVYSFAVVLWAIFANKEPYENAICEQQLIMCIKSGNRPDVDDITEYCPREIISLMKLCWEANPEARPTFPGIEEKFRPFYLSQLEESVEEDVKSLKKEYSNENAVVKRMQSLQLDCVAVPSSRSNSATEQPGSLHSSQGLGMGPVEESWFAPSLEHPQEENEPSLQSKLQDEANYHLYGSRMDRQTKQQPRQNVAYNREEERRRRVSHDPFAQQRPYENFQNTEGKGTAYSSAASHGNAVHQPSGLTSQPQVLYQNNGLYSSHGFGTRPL", "experiment": "ADP-Glo in vitro kinase assay with recombinant RIPK1 ([…] reduction at […])", "assay_type": "biochemical"}
{"compound": "CC(C)(C)c1cc(O)ccc1O", "note": "[TBHQ]", "values": [{"measurement": "inhibition at 100 µM", "result": "~60", "unit": "%"}]}
